Measured values reported in article PMC9569450, “Dual Effect of Tryptamine on Prostate Cancer Cell Growth Regulation: A Pilot Study” (International Journal of Molecular Sciences, 2022).
Read-outs that look alike come from different tables or passages of the source.

How the values were obtained:
PANC-1 cells = assay: MTT cell proliferation assay, PANC-1; type: cell-based; settings: Homo sapiens, PANC-1, 48 h treatment in FBS-free medium, read-out: IC50 Value (Mean ± SD mM) PANC-1
Procedure: (§1) PC-3, LNCaP, RWPE-1, HepG2, A549, and PANC-1 cells were purchased from the National Collection of Authenticated Cell Cultures (Shanghai, China). […] All the above cell cultures were supplied with 10% fetal bovine serum and 1% penicillin-streptomycin. RWPE-1 cells were cultured in keratinocyte serum-free medium (K-SFM, Gibco, New York, NY, USA) supplemented with 50 mg/L bovine pituitary extract and 5 μg/L epidermal growth factor (EGF). All cell lines were grown in a humidified atmosphere of 5% CO2 at 37 °C.
(§2) Cells were seeded in 100 μL complete medium in a 96-well plate, at a density of 10,000 cells/well for LNCaP and 5000 cells/well for other cells. Cells were pre-incubated for 24 h to allow for adherence before removal of complete medium and treatment with various concentrations of compounds in fetal bovine serum (FBS)-free medium for 48 h. After treatment, 20 μL/well MTT (5 mg/mL) was added and incubated for 3–4 h at 37 °C, and then 100 μL/well DMSO was added for MTT assay. The plate was shaken on an orbital shaker for 10 min. Absorbance was measured using a microplate reader at 492 nm for the MTT assay (performed in triplicates). Cell viability was normalized to control. Half inhibitory concentration (IC50) was calculated by SPSS Statistics 17.0. […] The experiments were independently repeated two to three times.

LNCaP cells = assay: MTT cell proliferation assay, LNCaP; type: cell-based; settings: Homo sapiens, LNCaP, 48 h treatment in FBS-free medium, read-out: IC50 Value (Mean ± SD mM) LNCaP
Procedure: as §1, §2

PC-3 cells = assay: MTT cell proliferation assay, PC-3; type: cell-based, human; settings: Homo sapiens, PC-3, 48 h treatment in FBS-free medium, read-out: IC50 Value (Mean ± SD mM) PC-3
Procedure: as §1, §2

HepG2 cells = assay: MTT cell proliferation assay, HepG2; type: cell-based; settings: Homo sapiens, HepG2, 48 h treatment in FBS-free medium, read-out: IC50 Value (Mean ± SD mM) HepG2
Procedure: as §1, §2

RWPE-1 cells = assay: MTT cell proliferation assay, RWPE-1; type: cell-based; settings: Homo sapiens, RWPE-1; MTT, 48 h treatment in FBS-free medium; read-out: IC50 Value (Mean ± SD mM) RWPE-1
Procedure: as §1, §2

A549 cells = assay: MTT cell proliferation assay, A549; type: cell-based; settings: Homo sapiens, A549, 48 h treatment in FBS-free medium, read-out: IC50 Value (Mean ± SD mM) A549
Procedure: as §1, §2

[1] = system: PC-3, LNCaP, RWPE-1, A549, PANC-1, and HepG2 cells; assay: MTT cell proliferation assay, all cell lines; type: cell-based
Procedure: (§3) PC-3, LNCaP, RWPE-1, HepG2, A549, and PANC-1 cells were purchased from the National Collection of Authenticated Cell Cultures (Shanghai, China). PC-3 and A549 cells were cultured in F-12K Nutrient Mixture (Gibco, New York, NY, USA), LNCaP in RPMI 1640 (Gibco, New York, NY, USA), PANC-1 in Dulbecco’s Modified Eagle Medium (DMEM, Gibco, New York, NY, USA), and HepG2 in minimal essential medium (MEM, Gibco, New York, NY, USA). All the above cell cultures were supplied with 10% fetal bovine serum and 1% penicillin-streptomycin. RWPE-1 cells were cultured in keratinocyte serum-free medium (K-SFM, Gibco, New York, NY, USA) supplemented with 50 mg/L bovine pituitary extract and 5 μg/L epidermal growth factor (EGF). All cell lines were grown in a humidified atmosphere of 5% CO2 at 37 °C.
(§4) Cells were seeded in 100 μL complete medium in a 96-well plate, at a density of 10,000 cells/well for LNCaP and 5000 cells/well for other cells. Cells were pre-incubated for 24 h to allow for adherence before removal of complete medium and treatment with various concentrations of compounds in fetal bovine serum (FBS)-free medium for 48 h. After treatment, 20 μL/well MTT (5 mg/mL) was added and incubated for 3–4 h at 37 °C, and then 100 μL/well DMSO was added for MTT assay. The plate was shaken on an orbital shaker for 10 min. Absorbance was measured using a microplate reader at 492 nm for the MTT assay (performed in triplicates). Cell viability was normalized to control. Half inhibitory concentration (IC50) was calculated by SPSS Statistics 17.0. The combination index (CI) isobologram equation was used for the quantitative determination of the interaction between two compounds [62]:(1) Combination index CI =CA,x/ICx,A+CB,x/ICx,B where CA,x and CB,x are compound concentrations that […], and ICx,A and ICx,B are compound concentrations that provide the same effect when being used in combination. The experiments were independently repeated two to three times.

[2] = system: human castration-resistant PCa cells DU145 and PC3; parameters: method as in PMID 33945018; settings: cited from earlier work
PC-3 and LNCaP cells = assay: MTT cell proliferation assay, PCa cell lines; type: cell-based; settings: Homo sapiens, read-out: IC50 values on PCa cell lines
Procedure: as §3, §4

[3] = system: A549, HepG2, and PANC-1 cells; assay: MTT cell proliferation assay, other three cancer cell lines; type: cell-based; settings: A549, HepG2, and PANC-1, text summary
Procedure: as §1, §2

[4] = all cell lines tested, read-out: IC50 values for all six cell lines tested

| Compound | IC50 (PANC-1 cells) | IC50 (LNCaP cells) | IC50 (PC-3 cells) | IC50 (HepG2 cells) | IC50 (A549 cells) | IC50 [1, 4] | IC50 (PC-3 and LNCaP cells; PC-3 and LNCaP) | IC50 ([1]; discussion summary, all cancer cell lines tested, read-out: IC50 values in all cancer cell lines tested) | IC50 (RWPE-1 cells) | effect on DU145 and PC3 cells [2] | IC50 (PC-3 and LNCaP cells; LNCaP) | IC50 [3] |
| --- | --- | --- | --- | --- | --- | --- | --- | --- | --- | --- | --- | --- |
| O=C(O)c1ccccn1 [Picolinic acid] |  | 5.75 mM | 4.95 ± 0.19 mM |  |  |  |  |  | 1.48 ± 0.06 mM |  |  |  |
| c1ccc2[nH]ccc2c1 [Indole] |  | 0.98 ± 0.02 mM | 0.7 ± 0.02 mM |  |  |  |  |  | 0.9 ± 0.06 mM |  |  |  |
| N[C@@H](Cc1c[nH]c2ccccc12)C(=O)O [Tryptophan] | 4.54 ± 0.19 mM | 6.51 ± 0.29 mM | 1.89 ± 0.13 mM | 1.54 ± 0.04 mM | 1.5 ± 0.15 mM |  |  |  | 0.76 ± 0.03 mM |  | 1900 to 6500 µM | 1500 to 4500 µM |

Continued, in another order:

| IC50 (PANC-1 cells) | IC50 (LNCaP cells) | IC50 (PC-3 cells) | IC50 (HepG2 cells) | IC50 (A549 cells) | IC50 [1, 4] | IC50 (PC-3 and LNCaP cells; PC-3 and LNCaP) | IC50 ([1]; discussion summary, all cancer cell lines tested, read-out: IC50 values in all cancer cell lines tested) | Compound | IC50 (RWPE-1 cells) | effect on DU145 and PC3 cells [2] | IC50 (PC-3 and LNCaP cells; LNCaP) | IC50 [3] |
| --- | --- | --- | --- | --- | --- | --- | --- | --- | --- | --- | --- | --- |
| 2.02 ± 0.09 mM | 1.25 ± 0.12 mM | 1.28 ± 0.06 mM | 1.48 ± 0.1 mM | 2.31 ± 0.06 mM | ≥ 1000 µM |  |  | COc1ccc2[nH]cc(CCNC(C)=O)c2c1 [Melatonin] | 1.47 ± 0.1 mM |  |  |  |
| 2.63 ± 0.04 mM | 1.78 ± 0.18 mM | 2.02 ± 0.05 mM | 1.93 ± 0.03 mM | 2.46 ± 0.05 mM | ≥ 1000 µM |  |  | Nc1ccccc1C(=O)CC(N)C(=O)O (centres unmarked) [Kynurenine, kynurenine] | 2.79 ± 0.05 mM |  |  |  |
| 0.25 ± 0.04 mM | 0.24 ± 0.01 mM | 0.17 ± 0.01 mM | 0.1 ± 0.01 mM | 0.21 ± 0.01 mM | ≤ 900 µM |  |  | Nc1c(C(=O)O)c2nc3c(C(=O)O)cccc3oc-2cc1=O [CA, cinnabarinic acid] | 0.4 ± 0.01 mM |  |  |  |
|  | 9.74 ± 1.3 mM | 8.76 ± 1.18 mM |  |  |  | > 5000 µM | > 3000 µM | O=C(O)c1cc(=O)c2ccccc2[nH]1 [KYNA, kynurenic acid] | 4.39 ± 0.1 mM | scarce or no effect |  |  |
